Here are results for 2 substances from patent publication US20230192772A1, “ANTIMICROBIAL PEPTIDES AND USES THEREOF” (SORBONNE UNIVERSITE, priority 2016, published 2023).

Ends that are not written are not given here.

Data set [1] in a line: LC50 on immune cells (cytotoxic effect, cell viability). In kind it is cell-based. The method, then:
The mouse immune cells are obtained from C57BL6 mouse bone marrow. The human immune cells were purified from the whole blood of healthy donors (blood bank, IMSS, Cuernavaca, Mexico).
The peptides are incubated at 37° C., 5% CO2 in the presence of 500,000 immune and non-immune cells in RPMI medium at varied concentrations and at varied times. Peptide-free cells are used as the negative control and cells incubated for 5 min at 50° C. or in the presence of DMSO (30%) are used as the positive control. After incubation, the cells are washed then labelled with propidium iodide so as to measure the cell viability. The cell viability is analysed by counting or with flow cytometry in the presence of antibodies coupled with fluorochromes corresponding to characteristic markers of each cell population. The LC50 is then calculated as being the concentration of DA2N and DA2NEQ peptides inducing the death of 50% of each one of the immune cell populations.
Cytometry data processing is carried out with FlowJo software.

Data set [2] is described as follows: LC50 on red blood cells. Type of data set: cell-based. As to conditions: C57BL6; Mouse red blood cells. On the procedure: The mouse red blood cells are obtained from C57BL6 mouse bone marrow.
(§1) The peptides are incubated at 37° C., 5% CO2 in the presence of 500,000 red blood cells in RPMI medium at varied concentrations and at varied times. Peptide-free cells are used as the negative control and cells incubated for 5 min at 50° C. or in the presence of DMSO (30%) are used as the positive control. The LC50 is then calculated as being the concentration of DA2N and DA2NEQ peptides inducing the death of 50% of the red blood cells.

A short description of data set [3]: Cytotoxic effects on immune cells obtained from mouse bone marrow. In kind it is cell-based. As to conditions: mouse immune cells originating from bone marrow, read-out: LC50. The method, then: The mouse immune cells are obtained from C57BL/6 or Balb/c mouse bone marrow. The peptides are incubated at 37° C., 5% CO2 in the presence of 500,000 immune cells in RPMI medium at varied concentrations for 2 hours. Peptide-free cells are used as the negative control and cells in the presence of DMSO (30%) are used as the positive control. After incubation, the cells are washed then labelled with Trypan blue so as to measure the cell viability by microscope counting. The LC50 is then calculated as being the concentration of DA2N, K12A and DANa peptides inducing the death of 50% of the immune cells.

In data set [4] the test system is psoriatic lesions and angiogenesis of skin. The experiment in a line: Imiquimod-induced psoriasis model. The note with it: topical, 10 µg; no Imiquimod treatment. In kind it is in vivo, balb/c mice. The method, then:
The DA2N and DA2NEQ peptides were tested in an Imiquimod-induced psoriasis model described by Van der Fits (Van der Fits et al. 2009. Journal of immunology. 182(9):5836-5845) on female balb/c mice, aged 7 to 8 weeks.
31 mg of commercial cream containing 5% Imiquimod (Aldara, 3 M Pharmaceuticals) is applied topically on about 2.5 cm of the previously shaven ventral region of the mice for 6 days. The first psoriatic lesions appear on the 3rd day. The peptides resuspended in the cream are applied topically or intravenously (10 µg) for the first 3 days of Imiquimod treatment. Mice with no Imiquimod treatment and/or with no peptide application were used as controls. On the 6th day, the mice are sacrificed and the skin sampled is analysed by microscopy (skin lesions and angiogenesis).

The nature of data set [5]: LC50 on red blood cells. In kind it is cell-based. The note with it: Human red blood cells. On the procedure:
The human red blood cells were purified from the whole blood of healthy donors (blood bank, IMSS, Cuernavaca, Mexico).
as §1

[6] abbreviates: C57BL6, Neutrophils, Mouse cells.
The mark [7] stands for this setting: C57BL6, T lymphocytes, Mouse cells.

Take ALWKTLLKKVGKVAGKAVLNAVTNMANQN-OH [DA2N]: the CC50 in data set [1] (C57BL6, Monocytes, Mouse cells) amounted to 5 µM; in data set [1] (C57BL6, NK cells, Mouse cells), 3 µM; in data set [1] (setting [6]), 6 µM; in data set [1] (setting [7]), 3 µM; in data set [1] (Monocytes, Human cells) it was 4 µM; in data set [1] (NK cells, Human cells) it was 4 µM. Further, the CC50 in data set [1] (Neutrophils, Human cells) was 7.5 µM; in data set [1] (T lymphocytes, Human cells), 4 µM; in the data set “LC50 on red blood cells [2]”, 750 µM; in the data set “LC50 on red blood cells [5]”, 750 µM. Besides, the CC50 at 2 hours in data set [3] came to 5 µM. Moreover, in data set [4], the “angiogenesis of healthy skin” value is recorded as “no effect on the angiogenesis of healthy skin”. For the same substance, the “effect on healthy skin” value in data set [4] is given as “no effect on healthy skin”.
Consider “ALWKTLLKKVGKVAGKAVLNAVTNMANQNEQ [DA2NEQ, ALWKTLLKKVGKVAGKAVLNAVTNMANQNEQOH]”, for which the CC50 in data set [1] (C57BL6, Monocytes, Mouse cells) stood at 7 µM; in data set [1] (C57BL6, NK cells, Mouse cells), 4 µM; in data set [1] (setting [6]), 7.5 µM; in data set [1] (setting [7]), 5 µM; in data set [1] (Monocytes, Human cells), 4 µM; in data set [1] (NK cells, Human cells) it was 4 µM. The CC50 was 7 µM in data set [1] (Neutrophils, Human cells); 5 µM in data set [1] (T lymphocytes, Human cells); 750 µM in the data set “LC50 on red blood cells [2]”; 750 µM in the data set “LC50 on red blood cells [5]”. In addition, the “angiogenesis of healthy skin” value in data set [4] is given as “no effect on the angiogenesis of healthy skin”. Further, the “effect on healthy skin” value in data set [4] is reported as “no effect on healthy skin”.
